# System: 227483-062-R1-J1-PDC complex spheroids with HUVEC/MSC, viability
# Assay: Anticancer human tumor 227483-062-R1-J1-PDC patient-derived pancreatic carcinoma cell line growth inhibition [CLK]
# Conditions: for IC50: curve of first compound; for viability, T/C: stronger effect = lower value
# Summary of the method: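 Patient-derived tumor cells grown as complex spheroids with HUVEC endothelial cells and mesenchymal stem cells, treated with drug combinations. Concentrations descend in half-log steps from near clinical Cmax, or from 10 microM if Cmax unknown.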
# [1] = second compound 0.0316 µM, first compound 0.0316 µM
# [2] = second compound 0.0316 µM, first compound 0.1 µM
# [3] = second compound 0.0316 µM, first compound 0.316 µM
# [4] = second compound 0.0316 µM, first compound 1 µM
# [5] = second compound 0.0316 µM, first compound 3.16 µM
# [6] = second compound 0.0316 µM, first compound 10 µM
# [7] = second compound 0.1 µM, first compound 0.0316 µM
# [8] = second compound 0.1 µM, first compound 0.1 µM
# [9] = second compound 0.1 µM, first compound 0.316 µM
# [10] = second compound 0.1 µM, first compound 1 µM
# [11] = second compound 0.1 µM, first compound 3.16 µM
# [12] = second compound 0.1 µM, first compound 10 µM
# [13] = second compound 0.316 µM, first compound 0.0316 µM
# [14] = second compound 0.316 µM, first compound 0.1 µM
# [15] = second compound 0.316 µM, first compound 0.316 µM
# [16] = second compound 0.316 µM, first compound 1 µM
# [17] = second compound 0.316 µM, first compound 3.16 µM
# [18] = second compound 0.316 µM, first compound 10 µM
# [19] = second compound 1 µM, first compound 0.0316 µM
# [20] = second compound 1 µM, first compound 0.1 µM
# [21] = second compound 1 µM, first compound 0.316 µM
# [22] = second compound 1 µM, first compound 1 µM
# [23] = second compound 1 µM, first compound 3.16 µM
# [24] = second compound 1 µM, first compound 10 µM
# [25] = second compound 3.16 µM, first compound 0.0316 µM
# [26] = second compound 3.16 µM, first compound 0.1 µM
# [27] = second compound 3.16 µM, first compound 0.316 µM
# [28] = second compound 3.16 µM, first compound 1 µM
# [29] = second compound 3.16 µM, first compound 3.16 µM
# [30] = second compound 3.16 µM, first compound 10 µM
# [31] = second compound 10 µM, first compound 0.0316 µM
# [32] = second compound 10 µM, first compound 0.1 µM
# [33] = second compound 10 µM, first compound 0.316 µM
# [34] = second compound 10 µM, first compound 1 µM
# [35] = second compound 10 µM, first compound 3.16 µM
# [36] = second compound 10 µM, first compound 10 µM
# 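Also: spheroids exposed to compounds for seven days before readout.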
# 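For viability, T/C in this document: percent of DMSO vehicle control luminescence as 100% viability.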
smiles,measurement,setting,value
Nc1ccccc1NC(=O)c1ccc(CNC(=O)OCc2cccnc2)cc1 + CNC(=O)c1ccc(Nc2nc(OC3CCCC3)c3c(-c4ccc5nc(C)oc5c4)c[nH]c3n2)c(OC)c1,IC50,second compound 0.0316 µM,> 10000 nM
same,IC50,second compound 0.1 µM,8510 nM
same,IC50,second compound 0.316 µM,5130 nM
same,IC50,second compound 1 µM,531 nM
same,IC50,second compound 3.16 µM,< 31.6 nM
same,IC50,second compound 10 µM,< 31.6 nM
same,"viability, T/C",[1],90.9%
same,"viability, T/C",[2],88.5%
same,"viability, T/C",[3],109%
same,"viability, T/C",[4],111%
same,"viability, T/C",[5],118%
same,"viability, T/C",[6],75.8%
same,"viability, T/C",[7],73.3%
same,"viability, T/C",[8],88.6%
same,"viability, T/C",[9],94.6%
same,"viability, T/C",[10],107%
same,"viability, T/C",[11],96.5%
same,"viability, T/C",[12],43%
same,"viability, T/C",[13],82.1%
same,"viability, T/C",[14],72.9%
same,"viability, T/C",[15],78.7%
same,"viability, T/C",[16],78.3%
same,"viability, T/C",[17],65.8%
same,"viability, T/C",[18],28%
same,"viability, T/C",[19],53.6%
same,"viability, T/C",[20],45.7%
same,"viability, T/C",[21],53.4%
same,"viability, T/C",[22],50.1%
same,"viability, T/C",[23],40.6%
same,"viability, T/C",[24],14.5%
same,"viability, T/C",[25],37.4%
same,"viability, T/C",[26],44.2%
same,"viability, T/C",[27],39.7%
same,"viability, T/C",[28],30.1%
same,"viability, T/C",[29],17.3%
same,"viability, T/C",[30],7.51%
same,"viability, T/C",[31],33%
same,"viability, T/C",[32],30.8%
same,"viability, T/C",[33],32.2%
same,"viability, T/C",[34],19.4%
same,"viability, T/C",[35],16.6%
same,"viability, T/C",[36],5.89%
C#Cc1c(F)ccc2cc(O)cc(-c3ncc4c(N5CC6CCC(C5)N6)nc(OCC56CCCN5CC(F)C6)nc4c3F)c12 (stereo unspecified) + CN1CCN(c2cc(C(=O)Nc3cc4cc(-c5cnn(C)c5)ccc4cn3)ccn2)CC1,IC50,second compound 0.0316 µM,> 10000 nM
same,IC50,second compound 0.1 µM,> 10000 nM
same,IC50,second compound 0.316 µM,< 31.6 nM
same,IC50,second compound 1 µM,< 31.6 nM
same,IC50,second compound 3.16 µM,< 31.6 nM
same,IC50,second compound 10 µM,< 31.6 nM
same,"viability, T/C",[1],95.4%
same,"viability, T/C",[2],97%
same,"viability, T/C",[3],128%
same,"viability, T/C",[4],114%
same,"viability, T/C",[5],108%
same,"viability, T/C",[6],69.7%
same,"viability, T/C",[7],66.1%
same,"viability, T/C",[8],70.6%
same,"viability, T/C",[9],67.7%
same,"viability, T/C",[10],81.6%
same,"viability, T/C",[11],68.8%
same,"viability, T/C",[12],52.3%
same,"viability, T/C",[13],5.84%
same,"viability, T/C",[14],7.37%
same,"viability, T/C",[15],7.6%
same,"viability, T/C",[16],7.53%
same,"viability, T/C",[17],10%
same,"viability, T/C",[18],6.58%
same,"viability, T/C",[19],3.51%
same,"viability, T/C",[20],2.53%
same,"viability, T/C",[21],1.89%
same,"viability, T/C",[22],3.48%
same,"viability, T/C",[23],1.46%
same,"viability, T/C",[24],1.87%
same,"viability, T/C",[25],4.16%
same,"viability, T/C",[26],4.44%
same,"viability, T/C",[27],3.89%
same,"viability, T/C",[28],3.43%
same,"viability, T/C",[29],3.41%
same,"viability, T/C",[30],2.74%
same,"viability, T/C",[31],4.25%
same,"viability, T/C",[32],2.63%
same,"viability, T/C",[33],2.09%
same,"viability, T/C",[34],4%
same,"viability, T/C",[35],1.52%
same,"viability, T/C",[36],1.15%
CCCS(=O)(=O)Nc1ccc(F)c(C(=O)c2c[nH]c3ncc(-c4ccc(Cl)cc4)cc23)c1F + CN1CCN(c2cc(C(=O)Nc3cc4cc(-c5cnn(C)c5)ccc4cn3)ccn2)CC1,IC50,second compound 0.0316 µM,> 10000 nM
same,IC50,second compound 0.1 µM,5270 nM
same,IC50,second compound 0.316 µM,< 31.6 nM
same,IC50,second compound 1 µM,< 31.6 nM
same,IC50,second compound 3.16 µM,< 31.6 nM
same,IC50,second compound 10 µM,< 31.6 nM
same,"viability, T/C",[1],115%
same,"viability, T/C",[2],98%
same,"viability, T/C",[3],92.6%
same,"viability, T/C",[4],111%
same,"viability, T/C",[5],113%
same,"viability, T/C",[6],98.8%
same,"viability, T/C",[7],59.5%
same,"viability, T/C",[8],63.6%
same,"viability, T/C",[9],62.2%
same,"viability, T/C",[10],95.5%
same,"viability, T/C",[11],57.5%
same,"viability, T/C",[12],32.8%
same,"viability, T/C",[13],5.7%
same,"viability, T/C",[14],6.53%
same,"viability, T/C",[15],5.51%
same,"viability, T/C",[16],4.08%
same,"viability, T/C",[17],8.45%
same,"viability, T/C",[18],5.43%
same,"viability, T/C",[19],4.51%
same,"viability, T/C",[20],1.83%
same,"viability, T/C",[21],3.28%
same,"viability, T/C",[22],1.8%
same,"viability, T/C",[23],2.28%
same,"viability, T/C",[24],2.25%
same,"viability, T/C",[25],3.73%
same,"viability, T/C",[26],4.36%
same,"viability, T/C",[27],3.99%
same,"viability, T/C",[28],4.7%
same,"viability, T/C",[29],5.81%
same,"viability, T/C",[30],4.4%
same,"viability, T/C",[31],4.02%
same,"viability, T/C",[32],2.72%
same,"viability, T/C",[33],2.7%
same,"viability, T/C",[34],3.39%
same,"viability, T/C",[35],3.28%
same,"viability, T/C",[36],2.76%

# Source: PubChem BioAssay AID2060623 (Molecular Pharmacology Branch, DTP, NCI, 2025)
